Converted amounts (≈) assume the structure as drawn.
What was measured:
[1] = system: Trichosporon asahii; experiment: Antifungal activity against Trichosporon asahii 1188 after 48 hrs by broth microdilution method; type: functional; conditions: Trichosporon asahii, 1188, 48 h
[2] = system: Klebsiella pneumoniae; experiment: Antibacterial activity against Klebsiella pneumoniae HK11750/08 after 24 hrs by broth microdilution method; type: functional; conditions: HK11750/08, 24 h
[3] = system: Trichophyton mentagrophytes; experiment: Antifungal activity against Trichophyton mentagrophytes 445 after 72 hrs by broth microdilution method; type: functional; conditions: Trichophyton mentagrophytes, 445, 72 h
[4] = system: Enterococcus sp.; experiment: Antibacterial activity against Enterococcus sp. HK14365/08 after 24 hrs by broth microdilution method; type: functional; conditions: HK14365/08, 24 h
[5] = system: CHO-K1; experiment: Cytotoxicity against CHOK1 cells after 24 hrs by MTT assay; type: cell-based; conditions: Cricetulus griseus, CHO-K1, 24 h
[6] = system: Trichophyton mentagrophytes; experiment: Antifungal activity against Trichophyton mentagrophytes 445 after 120 hrs by broth microdilution method; type: functional; conditions: Trichophyton mentagrophytes, 445, 120 h
[7] = system: Staphylococcus aureus; experiment: Antibacterial activity against methicillin-resistant Staphylococcus aureus HK5996/08 after 24 hrs by broth microdilution method; type: functional; conditions: HK5996/08, 24 h
[8] = system: Lichtheimia corymbifera; experiment: Antifungal activity against Absidia corymbifera 272 after 48 hrs by broth microdilution method; type: functional; conditions: Lichtheimia corymbifera, 272, 48 h
[9] = system: Mycobacterium kansasii; experiment: Antimycobacterial activity against Mycobacterium kansasii CNCTC My 235/80 after 14 days by micromethod; type: functional; conditions: CNCTC My 235/80, 336 h
[10] = system: Aspergillus fumigatus; experiment: Antifungal activity against Aspergillus fumigatus 231 after 48 hrs by broth microdilution method; type: functional; conditions: Aspergillus fumigatus, 231, 48 h
[11] = system: Candida tropicalis; experiment: Antifungal activity against Candida tropicalis 156 after 24 hrs by broth microdilution method; type: functional; conditions: Candida tropicalis, 156, 24 h
[12] = system: Staphylococcus epidermidis; experiment: Antibacterial activity against Staphylococcus epidermidis HK6966/08 after 48 hrs by broth microdilution method; type: functional; conditions: HK6966/08, 48 h
[13] = system: Staphylococcus aureus; experiment: Antibacterial activity against Staphylococcus aureus ATCC 6538 after 24 hrs by broth microdilution method; type: functional; conditions: ATCC 6538, 24 h
[14] = system: Pichia kudriavzevii; experiment: Antifungal activity against Candida krusei E28 after 48 hrs by broth microdilution method; type: functional; conditions: E28, 48 h
[15] = system: Staphylococcus aureus; experiment: Antibacterial activity against methicillin-resistant Staphylococcus aureus HK5996/08 after 48 hrs by broth microdilution method; type: functional; conditions: HK5996/08, 48 h
[16] = system: Staphylococcus epidermidis; experiment: Antibacterial activity against Staphylococcus epidermidis HK6966/08 after 24 hrs by broth microdilution method; type: functional; conditions: HK6966/08, 24 h
[17] = system: Pseudomonas aeruginosa; experiment: Antibacterial activity against Pseudomonas aeruginosa ATCC 9027 after 24 hrs by broth microdilution method; type: functional; conditions: ATCC 9027, 24 h
[18] = system: Mycobacterium kansasii; experiment: Antimycobacterial activity against Mycobacterium kansasii isolate 6509/96 after 21 days by micromethod; type: functional; conditions: isolate 6509/96, 504 h
[19] = system: Enterococcus sp.; experiment: Antibacterial activity against Enterococcus sp. HK14365/08 after 48 hrs by broth microdilution method; type: functional; conditions: HK14365/08, 48 h
[20] = system: Mycobacterium avium; experiment: Antimycobacterial activity against Mycobacterium avium CNCTC My 330/80 after 21 days by micromethod; type: functional; conditions: CNCTC My 330/80, 504 h
[21] = system: Nakaseomyces glabratus; experiment: Antifungal activity against Candida glabrata 20/I after 48 hrs by broth microdilution method; type: functional
[22] = system: Candida tropicalis; experiment: Antifungal activity against Candida tropicalis 156 after 48 hrs by broth microdilution method; type: functional; conditions: Candida tropicalis, 156, 48 h
[23] = system: Pseudomonas aeruginosa; experiment: Antibacterial activity against Pseudomonas aeruginosa ATCC 9027 after 48 hrs by broth microdilution method; type: functional; conditions: ATCC 9027, 48 h
[24] = system: Mycobacterium kansasii; experiment: Antimycobacterial activity against Mycobacterium kansasii isolate 6509/96 after 14 days by micromethod; type: functional; conditions: isolate 6509/96, 336 h
[25] = system: Lichtheimia corymbifera; experiment: Antifungal activity against Absidia corymbifera 272 after 24 hrs by broth microdilution method; type: functional; conditions: Lichtheimia corymbifera, 272, 24 h
[26] = system: Trichosporon asahii; experiment: Antifungal activity against Trichosporon asahii 1188 after 24 hrs by broth microdilution method; type: functional; conditions: Trichosporon asahii, 1188, 24 h
[27] = system: Mycobacterium tuberculosis; experiment: Antimycobacterial activity against Mycobacterium tuberculosis H37Rv CNCTC My 331/88 after 14 days by micromethod; type: functional; conditions: H37Rv CNCTC My 331/88, 336 h
[28] = system: Staphylococcus aureus; experiment: Antibacterial activity against Staphylococcus aureus ATCC 6538 after 48 hrs by broth microdilution method; type: functional; conditions: ATCC 6538, 48 h
[29] = system: Nakaseomyces glabratus; experiment: Antifungal activity against Candida glabrata 20/I after 24 hrs by broth microdilution method; type: functional
[30] = system: Escherichia coli; experiment: Antibacterial activity against Escherichia coli ATCC 8739 after 24 hrs by broth microdilution method; type: functional; conditions: ATCC 8739, 24 h
[31] = system: Klebsiella pneumoniae; experiment: Antibacterial activity against extended spectrum beta-lactamase producing Klebsiella pneumoniae HK14368/08 after 24 hrs by broth microdilution method; type: functional; conditions: HK14368/08, 24 h
[32] = system: Escherichia coli; experiment: Antibacterial activity against Escherichia coli ATCC 8739 after 48 hrs by broth microdilution method; type: functional; conditions: ATCC 8739, 48 h
[33] = system: Candida albicans; experiment: Antifungal activity against Candida albicans ATCC 44859 after 24 hrs by broth microdilution method; type: functional; conditions: ATCC 44859, 24 h
[34] = system: Mycobacterium avium; experiment: Antimycobacterial activity against Mycobacterium avium CNCTC My 330/80 after 14 days by micromethod; type: functional; conditions: CNCTC My 330/80, 336 h
[35] = system: Klebsiella pneumoniae; experiment: Antibacterial activity against Klebsiella pneumoniae HK11750/08 after 48 hrs by broth microdilution method; type: functional; conditions: HK11750/08, 48 h
[36] = system: Candida albicans; experiment: Antifungal activity against Candida albicans ATCC 44859 after 48 hrs by broth microdilution method; type: functional; conditions: ATCC 44859, 48 h
[37] = system: Mycobacterium tuberculosis; experiment: Antimycobacterial activity against Mycobacterium tuberculosis H37Rv CNCTC My 331/88 after 21 days by micromethod; type: functional; conditions: H37Rv CNCTC My 331/88, 504 h
[38] = system: Pichia kudriavzevii; experiment: Antifungal activity against Candida krusei E28 after 24 hrs by broth microdilution method; type: functional; conditions: E28, 24 h
[39] = system: Klebsiella pneumoniae; experiment: Antibacterial activity against extended spectrum beta-lactamase producing Klebsiella pneumoniae HK14368/08 after 48 hrs by broth microdilution method; type: functional; conditions: HK14368/08, 48 h
[40] = system: Mycobacterium kansasii; experiment: Antimycobacterial activity against Mycobacterium kansasii CNCTC My 235/80 after 7 days by micromethod; type: functional; conditions: CNCTC My 235/80, 168 h
[41] = system: Mycobacterium kansasii; experiment: Antimycobacterial activity against Mycobacterium kansasii CNCTC My 235/80 after 21 days by micromethod; type: functional; conditions: CNCTC My 235/80, 504 h
[42] = system: Mycobacterium kansasii; experiment: Antimycobacterial activity against Mycobacterium kansasii isolate 6509/96 after 7 days by micromethod; type: functional; conditions: isolate 6509/96, 168 h
[43] = system: Aspergillus fumigatus; experiment: Antifungal activity against Aspergillus fumigatus 231 after 24 hrs by broth microdilution method; type: functional; conditions: Aspergillus fumigatus, 231, 24 h

O=[N+]([O-])c1cc(-c2nnn(Cc3ccc(Br)cc3)n2)cc([N+](=O)[O-])c1
MIC [1]: > 500 µM
MIC [2]: > 125 µM
MIC [3]: > 500 µM
MIC [4]: > 125 µM
IC50 [5]: 55 µM
MIC [6]: > 500 µM
MIC [7]: > 125 µM
MIC [8]: > 500 µM
MIC99 [9]: 1 µM (≈ 0.405 µg/mL)
MIC [10]: > 500 µM
MIC [11]: > 500 µM
MIC [12]: 31.2 µM (≈ 12.7 µg/mL)
MIC [13]: 62.5 µM (≈ 25.3 µg/mL)
MIC [14]: > 500 µM
MIC [15]: > 125 µM
MIC [16]: 31.2 µM (≈ 12.7 µg/mL)
MIC [17]: > 125 µM
MIC99 [18]: 1 µM (≈ 0.405 µg/mL)
MIC [19]: > 125 µM
MIC99 [20]: 8 µM (≈ 3.24 µg/mL)
MIC [21]: > 500 µM
MIC [22]: > 500 µM
MIC [23]: > 125 µM
MIC99 [24]: 1 µM (≈ 0.405 µg/mL)
MIC [25]: > 500 µM
MIC [26]: > 500 µM
MIC99 [27]: 0.25 µM (≈ 0.101 µg/mL)
MIC [28]: 62.5 µM (≈ 25.3 µg/mL)
MIC [29]: > 500 µM
MIC [30]: > 125 µM
MIC [31]: > 125 µM
MIC [32]: > 125 µM
MIC [33]: > 500 µM
MIC99 [34]: 4 µM (≈ 1.62 µg/mL)
MIC [35]: > 125 µM
MIC [36]: > 500 µM
MIC99 [37]: 0.25 µM (≈ 0.101 µg/mL)
MIC [38]: > 500 µM
MIC [39]: > 125 µM
MIC99 [40]: 0.25 µM (≈ 0.101 µg/mL)
MIC99 [41]: 1 µM (≈ 0.405 µg/mL)
MIC99 [42]: 0.25 µM (≈ 0.101 µg/mL)
MIC [43]: > 500 µM

O=[N+]([O-])c1cc(-c2nnn(CSc3nnnn3-c3ccc(Cl)cc3)n2)cc([N+](=O)[O-])c1
MIC [1]: > 125 µM
MIC [2]: > 125 µM
MIC [3]: > 125 µM
MIC [4]: 125 µM (≈ 57.6 µg/mL)
IC50 [5]: 14 µM
MIC [6]: > 125 µM
MIC [7]: > 125 µM
MIC [8]: > 125 µM
MIC99 [9]: 1 µM (≈ 0.461 µg/mL)
MIC [10]: > 125 µM
MIC [11]: > 125 µM
MIC [12]: > 125 µM
MIC [13]: > 125 µM
MIC [14]: > 125 µM
MIC [15]: > 125 µM
MIC [16]: 125 µM (≈ 57.6 µg/mL)
MIC [17]: > 125 µM
MIC99 [18]: 0.5 µM (≈ 0.23 µg/mL)
MIC [19]: > 125 µM
MIC99 [20]: 4 µM (≈ 1.84 µg/mL)
MIC [21]: > 125 µM
MIC [22]: > 125 µM
MIC [23]: > 125 µM
MIC99 [24]: 0.5 µM (≈ 0.23 µg/mL)
MIC [25]: > 125 µM
MIC [26]: > 125 µM
MIC99 [27]: 0.03 µM (≈ 0.0138 µg/mL)
MIC [28]: > 125 µM
MIC [29]: > 125 µM
MIC [30]: > 125 µM
MIC [31]: > 125 µM
MIC [32]: > 125 µM
MIC [33]: > 125 µM
MIC99 [34]: 2 µM (≈ 0.922 µg/mL)
MIC [35]: > 125 µM
MIC [36]: > 125 µM
MIC99 [37]: 0.03 µM (≈ 0.0138 µg/mL)
MIC [38]: > 125 µM
MIC [39]: > 125 µM
MIC99 [40]: 0.5 µM (≈ 0.23 µg/mL)
MIC99 [41]: 2 µM (≈ 0.922 µg/mL)
MIC99 [42]: 0.25 µM (≈ 0.115 µg/mL)
MIC [43]: > 125 µM

O=[N+]([O-])c1cc(-c2nnn(Cc3ccc(F)cc3)n2)cc([N+](=O)[O-])c1
MIC [1]: > 500 µM
MIC [2]: > 500 µM
MIC [3]: > 500 µM
MIC [4]: > 500 µM
IC50 [5]: 35 µM
MIC [6]: > 500 µM
MIC [7]: > 500 µM
MIC [8]: > 500 µM
MIC99 [9]: 2 µM (≈ 0.689 µg/mL)
MIC [10]: > 500 µM
MIC [11]: > 500 µM
MIC [12]: > 500 µM
MIC [13]: > 500 µM
MIC [14]: > 500 µM
MIC [15]: > 500 µM
MIC [16]: > 500 µM
MIC [17]: > 500 µM
MIC99 [18]: 4 µM (≈ 1.38 µg/mL)
MIC [19]: > 500 µM
MIC99 [20]: 8 µM (≈ 2.75 µg/mL)
MIC [21]: > 500 µM
MIC [22]: > 500 µM
MIC [23]: > 500 µM
MIC99 [24]: 2 µM (≈ 0.689 µg/mL)
MIC [25]: > 500 µM
MIC [26]: > 500 µM
MIC99 [27]: 0.25 µM (≈ 0.0861 µg/mL)
MIC [28]: > 500 µM
MIC [29]: > 500 µM
MIC [30]: > 500 µM
MIC [31]: > 500 µM
MIC [32]: > 500 µM
MIC [33]: > 500 µM
MIC99 [34]: 8 µM (≈ 2.75 µg/mL)
MIC [35]: > 500 µM
MIC [36]: > 500 µM
MIC99 [37]: 0.5 µM (≈ 0.172 µg/mL)
MIC [38]: > 500 µM
MIC [39]: > 500 µM
MIC99 [40]: 1 µM (≈ 0.344 µg/mL)
MIC99 [41]: 2 µM (≈ 0.689 µg/mL)
MIC99 [42]: 1 µM (≈ 0.344 µg/mL)
MIC [43]: > 500 µM
